Assay [1] deals with follicle stimulating hormone (FSH). Nature of the assay: Serum FSH levels over time (clinical study CS21). Type of assay: in vivo, human. The note with it: by day 7; degarelix. On the procedure: The study also investigated whether degarelix is safe and effective with respect to achieving and maintaining testosterone suppression to castrate levels, evaluated as the proportion of patients with testosterone suppression ≦0.5 ng/mL during 12 months of treatment. […] The study also evaluated the pharmacokinetics of the degarelix dosing regimens investigated. Finally, the study examined the effects of using the degarelix treatment on patients suffering from different stages of cancer.
Patients in two treatment groups received a degarelix starting dose of 240 mg at a concentration of 40 mg/mL (240@40) on day 0 administered as two equivalent subcutaneous (s.c.) injections of 120 mg each. Thereafter, patients received 12 additional single s.c. degarelix doses of either 80 mg at a concentration of 20 mg/mL (80@20: degarelix 240/80 mg group) or 160 mg at a concentration of 40 mg/mL (160@40: degarelix 240/160 mg group) administered s.c. every 28 days.
(§1) The secondary efficacy endpoints were: the proportion of patients with testosterone surge during the first 2 weeks of treatment; the proportion of patients with testosterone level ≦0.5 ng/mL at day 3; the percentage change in PSA from baseline to day 28; the probability of testosterone ≦0.5 ng/mL from day 56 through day 364; the levels of serum testosterone, LH, FSH and PSA over time through the study; the time to PSA failure, defined as two consecutive increases of 50%, and at least 5 ng/mL as compared to nadir; degarelix concentration over the first month and trough levels at day 308 and 336; the frequency and size of testosterone increases at day 255 and/or 259 compared to the testosterone level at day 252; the quality of life on days 0, 28, 84, 168 and end of study visit; the frequency and intensity of hot flushes experienced (scored daily from study start until end of study visit). In addition, two further secondary endpoints were added: the probability of sufficient testosterone response from day 28 through day 364 (a patient was considered to have insufficient testosterone response if they had one testosterone value >1.0 ng/mL or two consecutive testosterone values >0.5 ng/mL at day 28 onwards); and the percentage change in PSA from baseline to day 14.

Assay [2] has as its system prostate-specific antigen (PSA). The experiment in a line: PSA failure in prostate cancer patients (clinical study CS21). The note with it: for proportion of PSA failures: degarelix 240/80 mg. Type of assay: in vivo, human. On the procedure: For this analysis, PSA failure (a secondary endpoint) was defined as two consecutive increases in PSA of 50% and 5 ng/mL compared with nadir. The time to PSA failure was defined as the number of days from first dosing to where an increase in serum PSA of 50% from nadir and 5 ng/mL, measured on two consecutive occasions at least two weeks apart, was noted. The second occasion was the time point of meeting the criterion. PSA failure rates were also analyzed by disease stage and baseline PSA level.
as §1
The secondary endpoints, probability of testosterone ≦0.5 ng/mL from day 56 through day 364, time to PSA failure, and probability of sufficient testosterone response from day 28 through day 364 were analyzed by the Kaplan-Meier method.

“And” between values parts separate entries of the source, which are not always exact repeats. Equal values may be shown once. Square brackets hold non-standard residues; d marks the D form. Peptide text beside a SMILES is read from it. * marks the point of attachment. dPhe(4-NHCONH2) = NC(=O)Nc1ccc(C[C@@H](N)C(=O)O)cc1; Dihydroorotyl(S) = O=C1C[C@@H](C(=O)*)NC(=O)N1; dPhe(4-Cl) = N[C@H](Cc1ccc(Cl)cc1)C(=O)O; Phe(4-NH2) = Nc1ccc(C[C@H](N)C(=O)O)cc1; d2Nal = N[C@H](Cc1ccc2ccccc2c1)C(=O)O; Lys(iPr) = CC(C)NCCCC[C@H](N)C(=O)O; d3Pal = N[C@H](Cc1cccnc1)C(=O)O Some results are limits rather than exact numbers.

As for `CC(=O)N[C@H](Cc1ccc2ccccc2c1)C(=O)N[C@H](Cc1ccc(Cl)cc1)C(=O)N[C@H](Cc1cccnc1)C(=O)N[C@@H](CO)C(=O)N[C@@H](Cc1ccc(NC(=O)[C@@H]2CC(=O)NC(=O)N2)cc1)C(=O)N[C@H](Cc1ccc(NC(N)=O)cc1)C(=O)N[C@@H](CC(C)C)C(=O)N[C@@H](CCCCNC(C)C)C(=O)N1CCC[C@H]1C(=O)N[C@H](C)C(N)=O` [degarelix, D-Alaninamide, N-acetyl-3-(2-naphthalenyl)-D-alanyl-4-chloro-D-phenylalanyl-3-(3-pyridinyl)-D-alanyl-L-seryl-4-[[[(4S)-hexahydro-2,6-dioxo-4-pyrimidinyl]carbonyl]amino]-L phenylalanyl-4-[(aminocarbonyl)amino]-D-phenylalanyl-L leucyl-N6-(1-methylethyl)-L-lysyl-L-prolyl] (Ac-[d2Nal][dPhe(4-Cl)][d3Pal]S[Phe(4-NH2)](Dihydroorotyl(S))[dPhe(4-NHCONH2)]L[Lys(iPr)]P[dA]-NH2), in assay [1], the “decrease of median FSH from baseline” value is over 80% and the “median FSH level” value is given as at most 1.5 IU/L. Further, the “probability of completing the study without experiencing PSA failure by day 364” value in assay [2] (degarelix 240/80 mg group) is 91.1% and 91.2%. Moreover, the “proportion of PSA failures” value in assay [2] (patients with baseline PSA>50 ng/mL) is 29.2%. Moreover, the “proportion of PSA failures” value in assay [2] (patients with metastatic disease at baseline) is reported as 21.6%.

The values above are taken from patent publication US9877999B2, “Methods for treating metastatic stage prostate cancer” (Ferring International SA, priority 2008, dated 2018).
